# Reference: patent publication US7138361B2, “Herbicidal heterocycles” (E. I. du Pont de Nemours and Company, priority 2000, dated 2006)
# Legend:
# Format in all cases: in vivo
# [1] = tested on: velvetleaf (Abutilon theophrasti); assay: Test C preemergence
# Summary of the method: (§1)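 Formulation: non-phytotoxic solvent mix incl. surfactant. Pre: applied right after planting. Post: 1–4-leaf seedlings. Read: visual 0–100, day 12–14, greenhouse.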
# Sunflower = assay: Test C preemergence
# [2] = tested on: morningglory (Ipomoea hederacea); assay: Test C preemergence
# Summary of the method: as §1
# [3] = tested on: pigweed (Amaranthus retroflexus); assay: Test C preemergence
# Summary of the method: as §1
# [4] = tested on: johnsongrass (Sorghum halepense); assay: Test C preemergence
# Summary of the method: as §1
# kochia (Kochia scoparia) = assay: Test C preemergence
# Summary of the method: as §1
# [5] = tested on: common ragweed (Ambrosia elatior); assay: Test C preemergence
# Summary of the method: as §1
# [6] = tested on: goosegrass (Eleusine indica); assay: Test C preemergence
# Summary of the method: as §1
# [7] = tested on: woolly cupgrass (Eriochloa villosa); assay: Test C preemergence
# Summary of the method: as §1
# [8] = tested on: yellow nutsedge (Cyperus esculentus); assay: Test C preemergence
# Summary of the method: as §1
# Nightshade = assay: Test C preemergence
# [9] = tested on: crabgrass (Digitaria sanguinalis); assay: Test C preemergence
# Summary of the method: as §1
# [10] = tested on: Surinam grass (Brachiaria decumbens); assay: Test C preemergence
# Summary of the method: as §1
# [11] = tested on: cocklebur (Xanthium strumarium); assay: Test C preemergence
# Summary of the method: as §1
# [12] = tested on: lambsquarters (Chenopodium album); assay: Test C preemergence
# Summary of the method: as §1
# soybean (Glycine max) = assay: Test C preemergence
# Summary of the method: as §1
# corn (Zea mays) = assay: Test C preemergence
# Summary of the method: as §1
# [13] = tested on: giant foxtail (Setaria faberii); assay: Test C preemergence
# Summary of the method: as §1
# [14] = tested on: bermudagrass (Cynodon dactylon); assay: Test C preemergence
# Summary of the method: as §1
# [15] = tested on: barnyardgrass (Echinochloa crus-galli); assay: Test C flooded paddy test; conditions: for Barnyardgrass plant response rating: Flooded Paddy, scale 0 to 100, 0 no effect, 100 complete control; for Plant response rating, Barnyardgrass: flooded paddy test, scale 0 to 100 (0 no effect, 100 complete control)
# Summary of the method: (§2)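 Greenhouse-maintained for 12 to 14 days after treatment, the paddy plants (2-leaf stage at application) were scored visually against controls. A score of 0 denotes no effect and a score of 100 denotes complete control.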
# [16] = tested on: duck salad (Heteranthera limosa); assay: Test C flooded paddy test; conditions: for Ducksalad plant response rating: Flooded Paddy, scale 0 to 100, 0 no effect, 100 complete control; for Plant response rating, Ducksalad: flooded paddy test, scale 0 to 100 (0 no effect, 100 complete control)
# Summary of the method: as §2
# [17] = tested on: smallflower flatsedge (Cyperus difformis); assay: Test C flooded paddy test; conditions: for Flatsedge plant response rating: Flooded Paddy, scale 0 to 100, 0 no effect, 100 complete control; for Plant response rating, Flatsedge: flooded paddy test, scale 0 to 100 (0 no effect, 100 complete control)
# Summary of the method: as §2
# [18] = Preemergence, Rate 500 g/ha, scale 0 to 100
# [19] = Rate 62 g/ha, scale 0 to 100, 0 no effect, 100 complete control
# [20] = preemergence, Rate 250 g/ha, visual evaluation after 12 to 14 days
# [21] = preemergence, Rate 125 g/ha, scale 0 to 100, 0 no effect, 100 complete control
smiles,measurement,setting,value
O=C1C(n2ccc(C3CCC3)n2)SCN1c1cccc(OC(F)F)c1 (centres unmarked) [Compound 45],"Plant response rating, Velvetleaf",[1]; [18],30
same,"Plant response rating, Velvetleaf",[1]; [19],0
same,"Plant response rating (0 to 100), Velvetleaf",[1]; [20],20
same,"Plant response rating, Velvetleaf",[1]; [21],0
same,"Plant response rating, Sunflower",Sunflower; [19],20
same,"Plant response rating, Sunflower","Sunflower; Rate 500 g/ha, scale 0 to 100",70
same,"Plant response rating, Morningglory",[2]; [18],0
same,"Plant response rating, Morningglory",[2]; [19],0
same,"Plant response rating (0 to 100), Morningglory",[2]; [20],0
same,"Plant response rating, Morningglory",[2]; [21],0
same,"Plant response rating, Pigweed",[3]; [18],30
same,"Plant response rating, Pigweed",[3]; [19],0
same,"Plant response rating (0 to 100), Pigweed",[3]; [20],0
same,"Plant response rating, Pigweed",[3]; [21],0
same,"Plant response rating, Johnsongrass",[4]; [18],100
same,"Plant response rating, Johnsongrass",[4]; [19],0
same,"Plant response rating (0 to 100), Johnsongrass",[4]; [20],50
same,"Plant response rating, Johnsongrass",[4]; [21],0
same,"Plant response rating, Kochia",kochia (Kochia scoparia); [18],100
same,"Plant response rating, Kochia",kochia (Kochia scoparia); [19],20
same,"Plant response rating (0 to 100), Kochia",kochia (Kochia scoparia); [20],90
same,"Plant response rating, Kochia",kochia (Kochia scoparia); [21],60
same,"Plant response rating, Ragweed, Common",[5]; [18],60
same,"Plant response rating, Ragweed, Common",[5]; [19],0
same,"Plant response rating (0 to 100), Ragweed, Common",[5]; [20],30
same,"Plant response rating, Ragweed, Common",[5]; [21],0
same,"Plant response rating, Goosegrass",[6]; [18],100
same,"Plant response rating, Goosegrass",[6]; [19],90
same,"Plant response rating (0 to 100), Goosegrass",[6]; [20],100
same,"Plant response rating, Goosegrass",[6]; [21],100
same,"Plant response rating, Cupgrass, Woolly",[7]; [18],100
same,"Plant response rating, Cupgrass, Woolly",[7]; [19],0
same,"Plant response rating (0 to 100), Cupgrass, Woolly",[7]; [20],70
same,"Plant response rating, Cupgrass, Woolly",[7]; [21],30
same,"Plant response rating, Nutsedge",[8]; [18],100
same,"Plant response rating (0 to 100), Nutsedge",[8]; [20],60
same,"Plant response rating, Nutsedge",[8]; [21],0
same,"Plant response rating, Nightshade",Nightshade; [19],0
same,"Plant response rating, Nightshade","Nightshade; Rate 125 g/ha, scale 0 to 100, 0 no effect, 100 complete control",0
same,"Plant response rating, Nightshade","Nightshade; Rate 500 g/ha, scale 0 to 100",40
same,"Plant response rating, Crabgrass",[9]; [18],100
same,"Plant response rating, Crabgrass",[9]; [19],90
same,"Plant response rating (0 to 100), Crabgrass",[9]; [20],100
same,"Plant response rating, Crabgrass",[9]; [21],100
same,"Plant response rating, Surinam grass",[10]; [18],70
same,"Plant response rating, Surinam grass",[10]; [19],0
same,"Plant response rating (0 to 100), Surinam grass",[10]; [20],40
same,"Plant response rating, Surinam grass",[10]; [21],0
same,"Plant response rating, Cocklebur",[11]; [18],90
same,"Plant response rating (0 to 100), Cocklebur",[11]; [20],20
same,"Plant response rating, Cocklebur",[11]; [21],0
same,"Plant response rating, Lambsquarters",[12]; [18],100
same,"Plant response rating, Lambsquarters",[12]; [19],60
same,"Plant response rating (0 to 100), Lambsquarters",[12]; [20],100
same,"Plant response rating, Lambsquarters",[12]; [21],100
same,"Plant response rating, Soybean",soybean (Glycine max); [18],0
same,"Plant response rating, Soybean",soybean (Glycine max); [19],0
same,"Plant response rating (0 to 100), Soybean",soybean (Glycine max); [20],0
same,"Plant response rating, Soybean",soybean (Glycine max); [21],0
same,"Plant response rating, Corn",corn (Zea mays); [18],0
same,"Plant response rating, Corn",corn (Zea mays); [19],0
same,"Plant response rating (0 to 100), Corn",corn (Zea mays); [20],0
same,"Plant response rating, Corn",corn (Zea mays); [21],0
same,"Plant response rating, Foxtail, Giant",[13]; [18],90
same,"Plant response rating, Foxtail, Giant",[13]; [19],30
same,"Plant response rating (0 to 100), Foxtail, Giant",[13]; [20],40
same,"Plant response rating, Foxtail, Giant",[13]; [21],40
same,"Plant response rating, Bermudagrass",[14]; [18],100
same,"Plant response rating, Bermudagrass",[14]; [19],50
same,"Plant response rating (0 to 100 where 0 is no effect and 100 is complete control), Bermudagrass",[14]; [20],100
same,"Plant response rating, Bermudagrass",[14]; [21],90
same,Barnyardgrass plant response rating,[15]; Rate 250 g/ha,100
same,Barnyardgrass plant response rating,[15]; Rate 500 g/ha,100
same,"Plant response rating, Barnyardgrass",[15]; Rate 62 g/ha,70
same,"Plant response rating, Barnyardgrass",[15]; Rate 125 g/ha,100
same,Ducksalad plant response rating,[16]; Rate 250 g/ha,100
same,Ducksalad plant response rating,[16]; Rate 500 g/ha,100
same,"Plant response rating, Ducksalad",[16]; Rate 62 g/ha,50
same,"Plant response rating, Ducksalad",[16]; Rate 125 g/ha,80
same,Flatsedge plant response rating,[17]; Rate 250 g/ha,100
same,Flatsedge plant response rating,[17]; Rate 500 g/ha,100
same,"Plant response rating, Flatsedge",[17]; Rate 62 g/ha,90
same,"Plant response rating, Flatsedge",[17]; Rate 125 g/ha,100
